US20090291857A1, “METHODS TO IDENTIFY INHIBITORS OF THE UNFOLDED PROTEIN RESPONSE” (THE BOARD OF TRUSTEES OF THE LELAND STANFORD JUNIOR …, priority 2006, published 2009)

Test system: IRE1α/XBP-1 pathway (XBP1-luciferase reporter)
Assay: High throughput XBP-luciferase reporter screen, tunicamycin/thapsigargin induced (HTS and IRE IC50)
Type: cell-based, human
Experimental: Specifically, HT1080 fibrosarcoma cells stably transfected with the unspliced XBP-1-luciferase reporter construct (3000/well) were plated onto a solid white 384 well microplate with a multidrop dispenser (40 μL per well). The plates were then placed into an automated incubator. After 24 hours of growth, a mixture of tunicamycin (1 μg/ml) and thapsigargin (100 nM) inducers were added, and candidate compounds were then added to the plates. After 24 hours, luciferase reagent (10 μl) was added to each well and the plates were read in a Molecular Devices Analyst GT (0.2 second read per well).
As described above in Example 2, HT1080 fibrosarcoma cells stably expressing the XBP-luciferase reporter were plated in a 384 well microplate (4000 cells/well). After 24 hours, cells were treated with a mixture of tunicamycin (4 μg/ml) and thapsigargin (0.4 μM), followed by the addition of one compound per well (10 μM). We screened a total of 66,000 diverse molecules obtained from Specs, Chembridge and ChemRX. Twenty-four hours post-induction, BriteGlo luciferase substrate (10 μl) was added to each well and the signal intensity determined in a plate reader (0.2 s read per well). […] We retested 431 compounds from the initial screen, and selected 58 compounds for additional analysis, including calculation of IC50 values and inhibition of a CMV-luciferase reporter.
A. XBP-luciferase reporter construct. Firefly luciferase was inserted downstream of the IRE1α splice site in human XBP-1 to enable the conditional translation of luciferase under ER stress in an IRE1α-dependent manner. B. Selective inhibition of the XBP-luciferase reporter by irestatin 9389. HT1080 human fibrosarcoma cells stably expressing the XBP-luciferase reporter or CMV-luciferase were cultured in the presence of Tm (4 μg/ml) and Tg (0.4 μM) and irestatin 9389 at the indicated concentrations. After 24 hours, luciferase activity was analyzed in an automated plate reader. For each cell line, values are expressed as the percent inhibition of the median for Tm/Tg-treated wells, corrected for background. C. Structure of irestatin 9389. D. XBP-luciferase reporter assay. HT1080 cells stably expressing the XBP-luciferase reporter were exposed to Tm (4 μg/ml) for 24 hours or hypoxia (0.1% oxygen) for 24 or 48 hours, in the presence of DMSO or irestatin 9389 (1 μM) as indicated. Values are expressed as the fold increases over uninduced levels. E. 5X-UPRE reporter assay. HT1080 cells were co-transfected with 5X-UPRE luciferase and SV40-beta-gal reporter plasmids, followed by exposure to Tm or hypoxia as in D. For each condition, luciferase activity is normalized to beta-galactosidase expression levels as an internal control for transfection efficiency. F. Western immunoblot analysis of XBP-1s. HT1080 cells were left untreated (lane 2) or exposed to Tm (4 μg/ml) for 20 hours in the presence of DMSO vehicle (lane 1) or the indicated irestatins (2 μM; lanes 3-6). Cell lysates were resolved by SDS-PAGE and immunoblotting using antisera specific for XBP-1s (top panel) or actin and GAPDH (bottom panel) as loading controls. […] HT1080 cells were treated with DMSO or exposed to irestatin 9389 (2 μM; lane 3) in normoxia (N) or under hypoxia for 24 hours (H 24; lanes 2,3). Cells were harvested, lysed, and analyzed by immunoblotting with antisera specific for HIF-1α (top), XBP-1s (middle) or actin (bottom). H. Northern blot analysis of XBP-1s transcription targets. Cells were exposed to Tm (4 μg/ml) or hypoxia for 24 hours (H 24) in the absence or presence of irestatin 9389 (2 μM). Total RNA was analyzed by Northern blotting using radiolabeled probes specific for P58^IPK or DER-1. Total rRNA is shown as loading control.
As described above, a HT1080 fibrosarcoma cell line stably expressing a fusion of unprocessed XBP-1 inserted upstream of firefly luciferase has been developed to identify small molecule inhibitors of the IRE1α/XBP-1 signaling module. […]

**Q.** For `Cc1csc(NC(=O)CSc2nc3c(c(C(F)(F)F)c2C#N)CCC3)n1` [Compound 9389], which “inhibition of IRE1α / IRE1α/XBP-1 signaling module in screen” value (HT1080 XBP-luciferase, Tm/Tg) is on record?
**A.** potent and specific inhibition of IRE1α

**Q.** And the inhibition at 10 µM (Homo sapiens, 24 h, inhibition of XBP1-luciferase reporter, read-out: Activity Class)?
**A.** 75 to 100%

**Q.** And the IC50 (Homo sapiens, HT-1080, 24 h, HT1080, Tm 4 μg/ml and Tg 0.4 μM, 24 hours, read-out: mean inhibitory concentration (IC50) of XBP-luciferase activity)?
**A.** ~0.025 µM

**Q.** And the inhibition at 20 µM (Homo sapiens, IRE IC50 assay, Conc 20 uM)?
**A.** 87.1%
